Key:
[1] = system: cornea; assay: Cornea assay for angiogenic factors; type: in vivo, rat; conditions: FGF 0.15 μM (six animals); Cyr61 1 μg/ml (seven animals)
Description: Another assay for modulators of angiogenesis is an in vivo assay for assessing the effect of a suspected modulator in the presence of an ECM signaling molecule-related biomaterial, such as Cyr61, on angiogenesis is the Cornea Assay. The Cornea Assay takes advantage of the absence of blood vessels in the cornea, which in the presence of an angiogenic factor, results in the detectable development of capillaries extending from the sclera into the cornea. Friedlander et al., Science 270:1500-1502 (1995). This ingrowth of new blood vessels from the sclera can be microscopically monitored. Further, the visually determined rate of migration can be used to assess changes in the rate of angiogenesis. […] Subsequently, eyes containing implants are visually observed for growth of the readily visible blood vessels within the eye. […]
Although rats of various sizes can be used in the cornea assay, a preferred size for the rats is 150-200 g/animal. […] Once the cornea pocket is made, the spatula is removed and the distance between the limbus and base of the pocket is measured to make sure the separation is at least about 1 mm. […]
Following surgery, animals are examined daily for seven days with the aid of a stereomicroscope to check for inflammation and responses. […] During this seven day period, animals are monitored for implant position and corneal exudate. […]

[2] = system: Human Microvascular Endothelial Cells; assay: Endothelial cell migration, inverted modified Boyden chamber; type: cell-based; conditions: 0.01-10 μg/ml
Procedure: In an alternative in vitro assay for angiogenic activity, an assay for endothelial cell migration was developed. […] Primary Human Microvascular Endothelial Cells (HMVEC PO51, Clonetics, San Diego, Calif.) were maintained in DME with 10% donor calf serum (Flow Laboratories, McLean, Va.) and 100 μg/ml endothelial celi mitogen (Biomedical Technologies Inc., Stoughton, Mass.). The cells were used between passages 10 and 15. To measure migration, cells were starved for 24 hours in DME containing 0.1% BSA, harvested, resuspended in DME with 0.1% BSA, and plated at 1.75×10^4 cells/well on the lower surface of a gelatinized 0.5 μm filter (Nucleopore Corporation, Pleasanton. Calif.) in an inverted modified Boyden chamber. After 1-2 hours at 37° C., during which time the cells were allowed to adhere to the filter, the chamber was reverted to its normal position. […] Chambers were disassembled, membranes fixed and stained, and the number of cells that had migrated to the top of the filter in 3 high-powered fields was determined. […]
To allow comparison of experiments performed on different days, migration data is reported as the percent of maximum migration towards the positive control, calculated after subtraction of background migration observed in the presence of DME plus BSA. […] Detachment was detected by counting cells on the lower face of the membrane. […]

## bFGF: Growth factor used as positive control [reference compound]
[1]
  eyes showing blood vessel growth after seven days: all six
[2]
  migrated cells per three high-powered microscope fields: 92 cells
